Measurements reported in patent US10660911B2, “Proton-motive force stimulation to potentiate aminoglycoside antibiotics against persistent bacteria” (TRUSTEES OF BOSTON UNIVERSITY, priority 2011, dated 2020).
Entries after “also recorded” stand apart in the source; their conditions may differ.

Experiments:
E. coli persisters = experiment: E. coli persister assay (survival by c.f.u. per ml); format: cell-based, Escherichia coli (K12 EMG2); details: for reduction of persister viability (killing by gentamicin induced by metabolite) / potentiation of gentamicin against E. coli persisters by metabolite: metabolite plus 10 μg/mL gentamicin; for reduction of persister viability (killing by gentamicin induced by metabolite) / potentiation of gentamicin against ΔndhΔnuoI strain persisters / potentiation of gentamicin against E. coli persisters by metabolite: 2 h; for reduction of persister viability (killing by gentamicin induced by metabolite): M9 minimal media; for potentiation of gentamicin against ΔndhΔnuoI strain persisters: ΔndhΔnuoI E. coli, gentamicin plus metabolite; for killing of E. coli persisters by antibiotic without metabolite: antibiotic alone, no carbon source; for killing of E. coli persisters by antibiotic in the presence of mannitol: antibiotic plus 10 mM mannitol
Procedure: (§1) For E. coli (K12 EMG2 strain) persister assays, as described herein, samples were grown to stationary phase in Luria-bertani (LB) broth. Cultures were then treated for 4 hours with 5 μg/mL ofloxacin. […] Samples were then washed with 10 mL 1× filtered PBS and re-suspended in M9 minimal media. Metabolites (Glucose, mannitol, fructose, and pyruvate) and aminoglycoside antibiotics (10 μg/mL gentamicin, 50 μg/mL streptomycin, and 30 μg/mL kanamycin) were added, and samples were incubated at 37° C., 300 RPM, and 80% humidity. Resuspension of samples in defined minimal media allowed precise and specific testing of the effect of different metabolites on persister viability, without the possible confounding factors that a more complex media would present. For S. aureus persister (ATCC 25923 strain) experiments, cells were grown at 37° C. and 300 RPM in LB broth to an OD600 of 0.3. Cells were then diluted 1:1000 in 25 mL LB and grown for 16 hours at 37° C. and 300 RPM in 250 mL flasks. Cultures were treated with carbon source and antibiotic. Previous work has shown that, approximately all, stationary phase S. aureus cells are persistent.
At specified time points, 10 μL aliquots of samples were removed, serially diluted, and spot-plated onto LB agar plates to determine colony forming units/mL (CFU/mL). Only dilutions that yielded between 10-100 colonies were counted. Survival was determined by dividing a replicate's CFU/mL at each time point by the initial CFU/mL for the replicate.
Given the dormancy of bacterial persisters and the known energy requirement for aminoglycoside activity^16, we tested whether metabolic stimulation could potentiate the efficacy of aminoglycosides against bacterial persisters. To test this, we screened metabolites for their ability to potentiate aminoglycosides against E. coli persisters. We selected carbon sources to maximize coverage of glycolysis, the pentose-phosphate pathway (PPP) and the Entner-Doudoroff pathway (EDP) (FIGS. 1A, 1B). Bacterial persisters were isolated (as described under “Methods”), re-suspended in minimal media supplemented with individual metabolites and then treated for 2 hours with the aminoglycoside gentamicin.
The following concentrations of carbon sources were used in this study: 10 mM glucose, 10 mM mannitol, 10 mM fructose, 20 mM glycerol, 30 mM glycolate, 10 mM galactarate, 20 mM pyruvate, 10 mM gluconate, 12 mM arabinose and 12 mM ribose. 10 mM acetate was used as a supplement and 30 mM acetate was used as a potentiating metabolite in control experiments. Carbon sources were purchased from Sigma or Fisher. In E. coli persister assays, samples were re-suspended in M9 minimal media salts plus a carbon source. In all experiments using CCCP, samples were pre-treated for 5 min with the proton ionophore before antibiotic addition.
For E. coli persister assays, samples were grown to stationary phase as described above. Cultures were then treated for 4 h with 5 μg ml^−1 ofloxacin in the above-stated growth conditions. […] Samples were then washed with 10 ml of 1× filtered PBS and re-suspended in M9 minimal media. Carbon sources and antibiotics were added and samples were incubated at 37° C. 300 r.p.m. and 80% humidity. Re-suspension of samples in defined minimal media allowed us to test the effects of different carbon sources on persister viability precisely and specifically, without the possible confounding factors that a more complex medium would present. For S. aureus persister experiments, cells were grown at 37° C. and 300 r.p.m. in LB broth to an OD600 of 0.3. Cells were then diluted 1:1,000 in 25 ml LB and grown for 16 h at 37° C. and 300 r.p.m. in 250 ml flasks before treatment with a carbon source and antibiotic. Previous work has shown that almost all stationary-phase S. aureus cells are persistent^25.
At specified time points, 10-μl aliquots of samples were removed, serially diluted and spot-plated onto LB agar plates to determine colony-forming units per ml (c.f.u. ml^−1). […]

S. aureus persisters = experiment: S. aureus persister assay; format: cell-based, Staphylococcus aureus (ATCC 25923)
Procedure: as §1, with “Previous work has shown that, approximately all, stationary phase S. aureus cells are persistent.” left out
At specified time points, 10-μl aliquots of samples were removed, serially diluted and spot-plated onto LB agar plates to determine colony-forming units per ml (c.f.u. ml^−1). Only dilutions that yielded 10-100 colonies were counted Survival was determined by dividing the c.f.u. ml^−1 of a sample at each time point by the initial c.f.u. ml^−1 for that sample.

[1] = system: stationary-phase E. coli cells; format: cell-based, Escherichia coli
Procedure: Given that aminoglycoside uptake is energy-dependent^16, we investigated whether the metabolic stimuli screened here could increase aminoglycoside uptake. We measured uptake by fluorescently labelling gentamicin with Texas red and analyzing cells by fluorescence-activated cell sorting (FACS). Cells were pre-incubated with metabolites for 30 min before a 5-min treatment with gentamicin-Texas red (FIG. 1D and FIG. 14).
Gentamicin-Texas red was made as previously described^27. At 4° C., 1 mg of Texas red (Invitrogen) was dissolved in 50 μl of high-quality anhydrous N,N-dimethylformamide. The dissolved Texas red was added slowly to 2.3 ml of 10 mg ml^−1 gentamicin solution in 100 mM K2CO3 at 4° C.
Uptake of gentamicin-Texas red induced by carbon sources in stationary-phase cells was determined by adding concentrated carbon sources (see section on media and growth conditions for concentrations) to stationary-phase cultures and incubating them for 30 min at 37° C., 300 r.p.m. and 80% humidity. Concentrated gentamicin-Texas red was then added to a final concentration of 10 μg ml^−1 and samples were incubated for 5 min. 100 μl of each sample was then washed with 1 ml of PBS and re-suspended in 1 ml of PBS. […] Samples were analysed on a BD FACS Aria II flow cytometer with the following settings: mCherry voltage, 650 V; FSC threshold, 1,000; recorded events, 100,000; gated-out mCherry events. <30.

[2] = system: uropathogenic E. coli biofilms; experiment: Mouse chronic urinary tract infection assay; format: in vivo, mice (BALB/c); details: i.v. twice daily for 3 days; gentamicin 1 mg/kg, mannitol 1.5 g/kg
Procedure: Female Charles River Balb/C mice (weighing 22-26 g) received surgical implantation in the urinary tract of 6 mm PESO catheter tubing that had been incubated in cultures of uropathogenic E. coli for 24 hours to form biofilms. Forty-eight hours after surgery, mice received no treatment or twice-daily, intravenous treatment with gentamicin (1 mg/Kg) or mannitol (1.5 g/Kg) and gentamicin (1 mg/Kg) for three days. Seven to eight mice were included in each group. Twenty-four hours after the last treatment, catheter tubing was extracted to determine biofilm viability and kidneys were removed to determine bacterial load.
To determine the clinical relevance of metabolic potentiation of aminoglycosides in vivo, we tested the ability of gentamicin in combination with mannitol to treat chronic, biofilm-associated infection in a mouse model. Catheters colonized with uropathogenic E. coli biofilms were implanted in the urinary tracts of mice (FIG. 3D). Two days after surgery, mice received either no treatment or intravenous treatment with gentamicin or gentamicin and mannitol for 3 days, after which the catheters were removed and biofilm viability was determined. Gentamicin alone had no effect, whereas gentamicin in combination with mannitol reduced the viability of the catheter biofilms by nearly 1.5 orders of magnitude (FIG. 3D). […]

Question: With OC[C@@H](O)[C@@H](O)[C@H](O)[C@H](O)CO [mannitol] as the compound, how does the “reduction of persister viability (killing by gentamicin induced by metabolite)” value (E. coli persisters) read?
Answer: three orders of magnitude

Question: And the “potentiation of gentamicin against ΔndhΔnuoI strain persisters” value (E. coli persisters)?
Answer: not potentiated

Question: What about the “potentiation of gentamicin against S. aureus persisters by metabolite” value (S. aureus persisters) of the same compound?
Answer: little potentiation

Question: For O=C(CO)[C@@H](O)[C@H](O)[C@H](O)CO [fructose], which “reduction of persister viability (killing by gentamicin induced by metabolite)” value (E. coli persisters) is on record?
Answer: three orders of magnitude

Question: And the “potentiation of gentamicin against ΔndhΔnuoI strain persisters” value (E. coli persisters)?
Answer: not potentiated

Question: What about the “PMF dependence of fructose potentiation in S. aureus” value (S. aureus persisters; gentamicin and fructose, with or without CCCP, 4 h) of the same compound?
Answer: requires PMF generation; also recorded: PMF-dependent killing

Question: How did the “potentiation of gentamicin against E. coli persisters by metabolite” value (E. coli persisters) turn out when O=C(O)[C@H](O)[C@@H](O)[C@H](O)[C@H](O)CO [gluconate] was run?
Answer: low potentiation

Question: For O=C(O)CO [glycolate], which “uptake of Texas Red probe” value ([1]; 30 mM glycolate, stationary phase E. coli) is on record?
Answer: affects the uptake of Texas Red probe

Question: How did the “killing of E. coli persisters by antibiotic without metabolite” value (E. coli persisters) turn out when CC1(C)S[C@@H]2[C@H](NC(=O)[C@H](N)c3ccccc3)C(=O)N2[C@H]1C(=O)O [ampicillin] was run?
Answer: none of the bactericidal antibiotics used in this study (ofloxacin, ampicillin, and gentamicin) caused killing of cells; also recorded: neither the β-lactam ampicillin nor the quinolone ofloxacin showed appreciable killing

Question: What about the “killing of E. coli persisters by antibiotic in the presence of mannitol” value (E. coli persisters) of the same compound?
Answer: neither the β-lactam ampicillin nor the quinolone ofloxacin showed appreciable killing

Question: With [H]/N=C(/N)N[C@H]1[C@H](O)[C@@H](O)[C@H](O[C@@H]2O[C@@H](C)[C@](O)(C=O)[C@H]2O[C@@H]2O[C@@H](CO)[C@H](O)[C@@H](O)[C@@H]2NC)[C@@H](N/C(N)=N\[H])[C@@H]1O [streptomycin] as the compound, how does the “killing of E. coli persisters by antibiotic without metabolite” value (E. coli persisters) read?
Answer: no appreciable killing

Question: What about the “aminoglycoside activity against E. coli persisters with upper-glycolytic metabolites” value (E. coli persisters; plus glucose, mannitol or fructose, 30 μg/mL kanamycin, 50 μg/mL streptomycin) of the same compound?
Answer: greatly enabled

Question: O=C[C@@H](O)[C@H](O)[C@H](O)CO [arabinose] was tested. Which “potentiation of gentamicin against E. coli persisters by metabolite” value (E. coli persisters) did it give?
Answer: low potentiation

Question: Which “potentiation of gentamicin against E. coli persisters by metabolite” value (E. coli persisters) does the source give for O=C[C@H](O)[C@H](O)[C@H](O)CO [ribose] here?
Answer: low potentiation

Question: Which results are given for gentamicin?
Answer: killing of E. coli persisters by antibiotic without metabolite (E. coli persisters): none of the bactericidal antibiotics used in this study (ofloxacin, ampicillin, and gentamicin) caused killing of cells; also recorded: No killing; killing of E. coli persisters by antibiotic in the presence of mannitol (E. coli persisters): rapidly eliminated; reduction of viability of catheter biofilms [2]: no effect

Question: For N#CC(C#N)=NNc1cccc(Cl)c1 [CCCP, carbonyl cyanide m-chlorophenyl hydrazone], which “effect of CCCP on metabolite potentiation of gentamicin” value (E. coli persisters; 20 μM CCCP pre-incubation, 10 μg/mL gentamicin plus carbon sources) is on record?
Answer: abolish aminoglycoside potentiation by all of the carbon sources; also recorded: abolishes metabolite-enabled potentiation

Question: And the “effect of CCCP on metabolite-induced gentamicin-Texas red uptake” value ([1]; 20 μM CCCP, 10 μg/mL Gent-TR, 30 min on carbon source)?
Answer: suppressed the metabolite-induced uptake of aminoglycoside
